Test results taken from article PMC7875911 (Frontiers in Pharmacology, 2021).

What was measured:
hNav1.7 = hNav1.7 (Homo sapiens, UniProt Q15858); assay type: cell-based
Source text: An EPC-9 patch-clamp amplifier and corresponding PULSE software from HEKA Electronik (Lambrecht/Pfalz, Germany) were used to make recordings. Currents were sampled at 50 kHz and recorded on a hard disk. Borosilicate glass from AM Systems, Everett, WA, United States were used for patch pipettes. The input resistance of the pipettes ranged from 2 to 4 MΩ. […] A built-in procedure of the HEKA amplifier compensated for the capacitive transient currents. A −P/6 protocol was utilized to subtract leak current online. I Ca was generated with the recording protocol which included a depolarization from a holding potential of −80 mV to 0 mV for 10 ms every 30 s. I Na was generated through a recording protocol which included a step depolarization from a holding potential of −80 mV to 0 mV for 10 ms at a frequency of 0.1 Hz. Cells were perfused with the test compound via a pressure driven perfusion system (AutoMate Scientific, United States).

hCav2.2 [1] = target: T1, hCav2.2 (Homo sapiens, UniProt Q00975); test: hCav2.2 steady-state inactivation (SSI); assay type: cell-based
T1 construct: expressed in transfected cells; host or cells: HEK293 (HEK293T), transient calcium phosphate co-transfection
Method: Human embryonic kidney (HEK293T) cells containing the SV40 Large T-antigen were cultured at 37°C, 5% CO2 in Dulbecco’s Modified Eagle’s Medium (DMEM, Invitrogen Life Technologies, Australia), supplemented with 10% fetal bovine serum (FBS, Bovigen, Australia), 1% GlutaMAX and penicillin-streptomycin (Invitrogen, Australia). HEK293 cells were then transiently co-transfected with the different voltage-gated calcium channel isoforms and green fluorescent protein (GFP) for visualization, using the calcium phosphate method. cDNAs encoding mCav1.2 (a gift from Dr. D. Lipscombe; Addgene plasmid #26572) ([Helton et al., 2005]), rCav1.3 (a gift from Dr. D. Lipscombe; Addgene plasmid # 49,333) ([Xu and Lipscombe, 2001]), hCav2.1 (a gift from Dr. J. Striessnig), rCav2.2 (a gift from Dr. D. Lipscombe), hCav2.2 (a gift from Dr. D. Yue), hCav2.3 (purchased from GenScript United States Inc.) were co-transfected with β3, α2δ1 and GFP. […]
(§1) Depolarization-activated Ca^2+ currents (ICa) in transfected HEK293 cells were recorded in the whole-cell patch clamp configuration. Data were recorded using a MultiClamp 700B amplifier, digitized with a DigiData1440 and controlled using Clampex10.7 software (Molecular Devices, United States). […]
(§2) Statistical significance (p < 0.05) was determined using unpaired Student’s t-test or 1-way ANOVA followed by a Tukey multiple comparison. […]

rCav2.2 = test: Whole-cell patch clamp, recombinant rCav2.2 in HEK293; assay type: cell-based, rat; settings: 10 µM
Method: (§3) Human embryonic kidney (HEK293T) cells containing the SV40 Large T-antigen were cultured at 37°C, 5% CO2 in Dulbecco’s Modified Eagle’s Medium (DMEM, Invitrogen Life Technologies, Australia), supplemented with 10% fetal bovine serum (FBS, Bovigen, Australia), 1% GlutaMAX and penicillin-streptomycin (Invitrogen, Australia). […]
as §1, §2
(§4) Numerous HVA Cav channel isoforms are present in rat DRG neurons. […] We transiently co-transfected the individual Cav channel α-subunits of interest together with β3 and α2δ1 subunits in HEK293 cells and measured whole-cell I Ca currents by patch clamp. […]

hCav2.2 [2] = target: T1, hCav2.2; test: cell-based
Method: Human embryonic kidney (HEK293T) cells containing the SV40 Large T-antigen were cultured at 37°C, 5% CO2 in Dulbecco’s Modified Eagle’s Medium (DMEM, Invitrogen Life Technologies, Australia), supplemented with 10% fetal bovine serum (FBS, Bovigen, Australia), 1% GlutaMAX and penicillin-streptomycin (Invitrogen, Australia). HEK293 cells were then transiently co-transfected with the different voltage-gated calcium channel isoforms and green fluorescent protein (GFP) for visualization, using the calcium phosphate method. cDNAs encoding mCav1.2 (a gift from Dr. D. Lipscombe; Addgene plasmid #26572) ([Helton et al., 2005]), rCav1.3 (a gift from Dr. D. Lipscombe; Addgene plasmid # 49,333) ([Xu and Lipscombe, 2001]), hCav2.1 (a gift from Dr. J. Striessnig), rCav2.2 (a gift from Dr. D. Lipscombe), hCav2.2 (a gift from Dr. D. Yue), hCav2.3 (purchased from GenScript United States Inc.) were co-transfected with β3, α2δ1 and GFP. After transfection, cells were plated on 12 mm cover glass and transferred to a 30°C incubator for 1–3 days.
Depolarization-activated Ca^2+ currents (ICa) in transfected HEK293 cells were recorded in the whole-cell patch clamp configuration. Data were recorded using a MultiClamp 700B amplifier, digitized with a DigiData1440 and controlled using Clampex10.7 software (Molecular Devices, United States). Currents were sampled at 100 kHz and filtered to 10 kHz, with leak and capacitive currents subtracted using a −P/4 protocol. […] Intracellular recording solution contained as follows (mM): 140 KGluconate, 5 NaCl, 2 MgCl2, 5 EGTA and 10 HEPES, pH 7.2 with KOH. Cells were continuously perfused with extracellular solution at a rate of ∼1.2 ml/min. […]
as §2, §4

rCav1.3 = test: Whole-cell patch clamp, recombinant rCav1.3 in HEK293; assay type: cell-based, rat; settings: 10 µM
Method: as §3, §1, §2, §4

T1 sequence (P54289 25-956): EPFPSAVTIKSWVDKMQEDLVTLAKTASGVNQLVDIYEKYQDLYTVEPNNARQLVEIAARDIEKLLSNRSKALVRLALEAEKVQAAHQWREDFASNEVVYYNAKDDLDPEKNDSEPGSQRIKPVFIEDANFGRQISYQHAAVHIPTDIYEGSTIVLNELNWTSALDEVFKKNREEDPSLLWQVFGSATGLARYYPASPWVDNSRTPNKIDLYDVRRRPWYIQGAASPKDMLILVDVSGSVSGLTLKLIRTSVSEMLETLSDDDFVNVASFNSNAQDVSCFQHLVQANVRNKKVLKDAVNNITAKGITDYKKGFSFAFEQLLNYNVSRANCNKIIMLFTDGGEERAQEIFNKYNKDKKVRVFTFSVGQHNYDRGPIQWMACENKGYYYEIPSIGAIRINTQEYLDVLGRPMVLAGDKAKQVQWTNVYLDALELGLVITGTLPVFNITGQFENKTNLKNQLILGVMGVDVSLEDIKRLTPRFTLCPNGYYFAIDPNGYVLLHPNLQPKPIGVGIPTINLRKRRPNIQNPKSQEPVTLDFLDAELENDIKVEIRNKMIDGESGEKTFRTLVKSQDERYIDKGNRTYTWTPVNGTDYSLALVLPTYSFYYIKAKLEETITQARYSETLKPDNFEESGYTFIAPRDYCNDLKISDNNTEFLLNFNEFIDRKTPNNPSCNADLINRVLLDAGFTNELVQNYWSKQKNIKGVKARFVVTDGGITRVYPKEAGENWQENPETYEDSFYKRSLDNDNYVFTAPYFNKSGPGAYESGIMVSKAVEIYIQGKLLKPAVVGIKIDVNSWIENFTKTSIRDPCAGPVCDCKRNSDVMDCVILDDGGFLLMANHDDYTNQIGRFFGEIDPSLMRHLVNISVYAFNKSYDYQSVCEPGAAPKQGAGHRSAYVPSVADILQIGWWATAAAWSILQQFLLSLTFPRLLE
T1 sequence (P54289 957-1103): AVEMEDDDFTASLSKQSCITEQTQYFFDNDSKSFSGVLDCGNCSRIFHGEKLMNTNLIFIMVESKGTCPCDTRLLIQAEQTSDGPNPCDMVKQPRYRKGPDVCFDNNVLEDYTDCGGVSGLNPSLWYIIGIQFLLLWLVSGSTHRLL
T1 sequence (Q00975 whole entry): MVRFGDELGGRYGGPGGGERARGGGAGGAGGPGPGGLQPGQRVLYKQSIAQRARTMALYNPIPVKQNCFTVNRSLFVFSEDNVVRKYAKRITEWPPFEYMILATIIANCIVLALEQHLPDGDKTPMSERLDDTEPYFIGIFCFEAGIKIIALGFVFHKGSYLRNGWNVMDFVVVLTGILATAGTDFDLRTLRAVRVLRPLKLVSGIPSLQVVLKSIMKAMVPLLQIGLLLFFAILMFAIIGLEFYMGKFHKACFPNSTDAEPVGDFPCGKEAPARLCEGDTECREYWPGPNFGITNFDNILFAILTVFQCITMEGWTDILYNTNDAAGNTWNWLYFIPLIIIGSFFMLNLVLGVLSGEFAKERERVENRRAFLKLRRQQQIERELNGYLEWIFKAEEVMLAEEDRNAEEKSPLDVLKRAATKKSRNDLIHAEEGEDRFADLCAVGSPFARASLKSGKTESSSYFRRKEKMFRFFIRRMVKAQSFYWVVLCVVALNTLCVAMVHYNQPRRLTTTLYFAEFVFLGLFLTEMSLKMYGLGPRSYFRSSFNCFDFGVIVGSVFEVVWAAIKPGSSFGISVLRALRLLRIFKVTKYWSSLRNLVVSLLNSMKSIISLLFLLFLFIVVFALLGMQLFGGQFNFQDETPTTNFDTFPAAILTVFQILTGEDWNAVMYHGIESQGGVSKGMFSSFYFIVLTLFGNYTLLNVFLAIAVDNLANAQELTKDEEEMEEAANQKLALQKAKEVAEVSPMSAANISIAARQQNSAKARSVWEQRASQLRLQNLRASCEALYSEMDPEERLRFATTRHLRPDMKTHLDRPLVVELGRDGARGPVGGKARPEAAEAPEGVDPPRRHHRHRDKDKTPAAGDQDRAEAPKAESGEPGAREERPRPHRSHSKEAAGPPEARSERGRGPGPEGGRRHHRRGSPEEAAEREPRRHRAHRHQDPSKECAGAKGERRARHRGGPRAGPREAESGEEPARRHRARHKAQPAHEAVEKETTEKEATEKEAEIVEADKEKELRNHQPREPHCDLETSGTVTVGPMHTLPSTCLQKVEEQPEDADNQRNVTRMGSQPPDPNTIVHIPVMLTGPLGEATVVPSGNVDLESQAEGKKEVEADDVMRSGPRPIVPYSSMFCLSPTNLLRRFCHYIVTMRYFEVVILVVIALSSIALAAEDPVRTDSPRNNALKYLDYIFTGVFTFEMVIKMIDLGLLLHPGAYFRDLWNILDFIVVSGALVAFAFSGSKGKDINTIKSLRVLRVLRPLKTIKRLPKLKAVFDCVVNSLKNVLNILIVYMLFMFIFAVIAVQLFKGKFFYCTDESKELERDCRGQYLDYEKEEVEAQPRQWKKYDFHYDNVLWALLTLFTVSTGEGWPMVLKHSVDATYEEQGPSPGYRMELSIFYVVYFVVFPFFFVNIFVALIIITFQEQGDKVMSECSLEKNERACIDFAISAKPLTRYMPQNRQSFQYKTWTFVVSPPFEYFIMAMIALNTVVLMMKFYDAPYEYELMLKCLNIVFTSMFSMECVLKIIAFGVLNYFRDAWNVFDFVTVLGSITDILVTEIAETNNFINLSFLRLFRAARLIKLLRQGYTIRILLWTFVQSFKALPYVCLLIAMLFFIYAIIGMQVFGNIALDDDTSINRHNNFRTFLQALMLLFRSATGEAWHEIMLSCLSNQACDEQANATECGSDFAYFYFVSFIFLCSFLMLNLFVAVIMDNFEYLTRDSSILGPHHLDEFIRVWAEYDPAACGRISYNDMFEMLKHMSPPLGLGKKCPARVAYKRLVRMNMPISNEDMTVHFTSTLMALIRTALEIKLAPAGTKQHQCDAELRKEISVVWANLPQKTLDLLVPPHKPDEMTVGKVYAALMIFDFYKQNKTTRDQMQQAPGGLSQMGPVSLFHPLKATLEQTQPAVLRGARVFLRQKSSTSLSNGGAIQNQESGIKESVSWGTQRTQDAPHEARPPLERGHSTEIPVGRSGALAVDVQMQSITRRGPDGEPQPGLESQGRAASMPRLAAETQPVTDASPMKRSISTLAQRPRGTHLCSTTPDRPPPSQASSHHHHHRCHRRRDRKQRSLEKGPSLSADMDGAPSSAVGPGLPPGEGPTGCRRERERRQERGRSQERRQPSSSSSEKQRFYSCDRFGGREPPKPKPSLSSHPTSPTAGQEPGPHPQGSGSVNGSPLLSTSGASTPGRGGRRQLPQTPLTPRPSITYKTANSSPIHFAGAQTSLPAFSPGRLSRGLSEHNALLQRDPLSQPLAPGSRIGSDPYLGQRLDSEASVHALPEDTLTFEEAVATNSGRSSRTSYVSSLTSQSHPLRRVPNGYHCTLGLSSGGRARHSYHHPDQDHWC
T1 sequence (P54284 whole entry, further chain): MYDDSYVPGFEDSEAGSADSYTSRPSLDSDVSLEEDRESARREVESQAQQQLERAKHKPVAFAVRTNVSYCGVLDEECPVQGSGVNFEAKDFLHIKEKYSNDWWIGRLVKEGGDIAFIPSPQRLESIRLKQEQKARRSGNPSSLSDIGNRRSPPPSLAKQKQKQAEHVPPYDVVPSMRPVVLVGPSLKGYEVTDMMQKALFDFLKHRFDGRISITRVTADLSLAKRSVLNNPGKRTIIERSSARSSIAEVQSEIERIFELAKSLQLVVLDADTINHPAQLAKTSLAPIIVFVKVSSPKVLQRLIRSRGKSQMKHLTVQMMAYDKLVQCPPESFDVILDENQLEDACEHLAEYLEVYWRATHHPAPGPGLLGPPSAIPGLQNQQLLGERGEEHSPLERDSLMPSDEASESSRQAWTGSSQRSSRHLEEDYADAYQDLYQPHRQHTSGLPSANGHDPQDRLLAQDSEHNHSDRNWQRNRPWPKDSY

CSCC[C@@H]1NC(=O)[C@H](Cc2ccc(O)cc2)NC(=O)[C@H](CCCNC(=N)N)NC(=O)[C@@H](NC(=O)[C@@H](N)CC(=O)O)CSSC[C@@H]2NC(=O)[C@@H]3CSSC[C@@H](C(=O)N[C@@H](C)C(=O)N[C@@H](Cc4c[nH]c5ccccc45)C(=O)N[C@@H](CC(=O)O)C(=O)N[C@@H](Cc4ccccc4)C(=O)N[C@H](C(=O)N[C@@H](Cc4ccccc4)C(=O)N[C@H](C(=O)O)[C@@H](C)O)[C@@H](C)O)NC(=O)[C@H](Cc4ccc(O)cc4)NC(=O)[C@H](CCCCN)NC(=O)[C@H](CCSC)NC(=O)[C@H](CCCCN)NC(=O)[C@H](CCCNC(=N)N)NC(=O)[C@H](CCCCN)NC(=O)[C@H](CSSC[C@H](NC(=O)[C@H](CC(=O)O)NC(=O)CNC(=O)[C@H](Cc4ccccc4)NC1=O)C(=O)N[C@@H](CCC(=O)O)C(=O)N[C@@H](CCCCN)C(=O)N[C@@H](CC(=O)O)C(=O)N[C@@H](CCC(=O)O)C(=O)N[C@@H](CC(=O)O)C(=O)N3)NC(=O)CNC(=O)[C@H](CC(C)C)NC(=O)[C@H](Cc1c[nH]cn1)NC(=O)[C@H](CCCCN)NC2=O [Pn3a, µ-Theraphotoxin-Pn3a]
concentration at which inhibition is reliably distinguished from current rundown (hNav1.7): > 10 nM | difference in hNav1.7 potency from reported value (hNav1.7): ~30 fold | reversibility of hNav1.7 inhibition (hNav1.7): virtually irreversible at higher concentrations | V0.5 of steady-state inactivation (hCav2.2 [1]): −69.8 ± 0.3 mV | slope factor ka of steady-state inactivation (hCav2.2 [1]): 10.5 ± 0.3 | inhibition of rat Cav2.2-mediated current (rCav2.2): 69.5 ± 1.0% | Hill coefficient n H (hCav2.2 [2]): 1.16 ± 0.07 | effect on depolarization-activated hCav2.2 current kinetics (in words) (hCav2.2 [2]): not altered | inhibition at 10 µM (hCav2.2 [2]; HEK293, read-out: inhibition of human Cav2.2-mediated current): 71.8 ± 0.6% | inhibition of Cav1.3-mediated current (rCav1.3): 65.6 ± 1.8%
